Data reported in patent publication US10435399B2, “HDAC6 inhibitory heterocyclic compound” (TAKEDA PHARMACEUTICAL COMPANY LIMITED, priority 2017, dated 2019).

Target: T1, HDAC6 enzyme (Homo sapiens, UniProt Q9UBN7)
T1 construct: transducing full length HDAC6 gene into Sf-9 insect cells; GST; purchased SignalChem; host or cells: Sf-9 insect cells
T1 sequence (Q9UBN7 1-1215): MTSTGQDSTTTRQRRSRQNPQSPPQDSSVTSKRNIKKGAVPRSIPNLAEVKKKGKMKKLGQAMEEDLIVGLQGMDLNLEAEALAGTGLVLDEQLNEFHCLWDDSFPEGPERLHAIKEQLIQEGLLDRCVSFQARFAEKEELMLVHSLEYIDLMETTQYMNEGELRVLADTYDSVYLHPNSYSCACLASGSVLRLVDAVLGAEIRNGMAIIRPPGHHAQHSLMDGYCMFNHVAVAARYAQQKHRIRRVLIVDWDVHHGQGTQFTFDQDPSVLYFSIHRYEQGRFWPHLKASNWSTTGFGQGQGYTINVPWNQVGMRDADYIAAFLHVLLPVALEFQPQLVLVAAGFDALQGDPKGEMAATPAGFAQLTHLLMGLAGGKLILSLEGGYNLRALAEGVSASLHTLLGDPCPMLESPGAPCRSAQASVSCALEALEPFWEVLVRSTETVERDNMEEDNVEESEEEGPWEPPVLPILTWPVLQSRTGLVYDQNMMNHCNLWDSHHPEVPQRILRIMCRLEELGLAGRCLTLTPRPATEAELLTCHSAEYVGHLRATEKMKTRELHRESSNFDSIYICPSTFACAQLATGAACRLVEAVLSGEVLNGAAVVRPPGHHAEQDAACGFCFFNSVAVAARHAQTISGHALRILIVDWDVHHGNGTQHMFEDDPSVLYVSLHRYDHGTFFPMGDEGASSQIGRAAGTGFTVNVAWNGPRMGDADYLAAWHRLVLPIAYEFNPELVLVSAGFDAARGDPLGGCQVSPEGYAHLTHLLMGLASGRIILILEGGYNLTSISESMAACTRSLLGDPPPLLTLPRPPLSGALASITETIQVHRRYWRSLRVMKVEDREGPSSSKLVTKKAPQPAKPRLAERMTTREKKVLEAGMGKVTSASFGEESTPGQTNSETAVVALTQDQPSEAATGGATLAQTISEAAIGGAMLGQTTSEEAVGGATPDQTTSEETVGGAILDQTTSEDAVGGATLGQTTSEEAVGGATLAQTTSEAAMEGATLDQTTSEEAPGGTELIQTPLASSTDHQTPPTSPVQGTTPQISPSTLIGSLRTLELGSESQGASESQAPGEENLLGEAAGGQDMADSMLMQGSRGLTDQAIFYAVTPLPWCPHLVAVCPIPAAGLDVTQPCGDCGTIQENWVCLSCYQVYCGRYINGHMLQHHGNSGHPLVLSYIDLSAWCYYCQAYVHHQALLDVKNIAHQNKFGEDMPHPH
Assay: HDAC6 enzyme inhibitory activity (HDAC-Glo I/II Assay kit)
Assay type: biochemical
Conditions: 10 μM; wells without enzyme = 100% inhibition; read-out: HDAC6 inhibitory rate (%) (10 μM)
Procedure, shortened: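 Full-length human HDAC6 (GST-purified, Sf-9 expressed) preincubated with compound 60 min at room temperature in Tris-HCl pH 7.5 buffer with MgCl2, KCl, NaCl, glutathione, Tween-20. HDAC-Glo I/II substrate-developer then added, 20 min room temperature, luminescence read. Inhibition relative to no-enzyme wells as 100%.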

inhibition at 10 µM	Structure (SMILES)
101%	O=C1c2cc(-c3nnc(C(F)F)o3)ccc2CN1c1ccccc1-c1cccc(Cl)n1 [Example 305, 2-(2-(6-chloropyridin-2-yl)-phenyl)-6-(5-(difluoro-methyl)-1,3,4-oxadiazol-2-yl)isoindolin-1-one]
101%	Cc1cn2cc(-c3ccccc3N3Cc4ccc(-c5nnc(C(F)F)o5)cc4C3=O)ccc2n1 [Example 306, 6-(5-(difluoromethyl)-1,3,4-oxadiazol-2-yl)-2-(2-(2-methylimidazo[1,2-a]-pyridin-6-yl)phenyl)-isoindolin-1-one]
98%	O=C1c2cc(-c3nnc(C(F)F)o3)ccc2CN1c1ccccc1-c1ccc(F)c(F)c1 [Example 307, 2-(3′,4′-difluorobiphenyl-2-yl)-6-(5-(difluoromethyl)-1,3,4-oxadiazol-2-yl)-isoindolin-1-one]
97%	O=C1c2cc(-c3nnc(C(F)F)o3)ccc2CN1c1ccccc1-c1cccc(F)c1F [Example 308, 2-(2′,3′-difluorobiphenyl-2-yl)-6-(5-(difluoromethyl)-1,3,4-oxadiazol-2-yl)-isoindolin-1-one]
97%	O=C1c2cc(-c3nnc(C(F)F)o3)ccc2CN1c1ccccc1-c1cc(F)ccc1F [Example 309, 2-(2′,5′-difluorobiphenyl-2-yl)-6-(5-(difluoromethyl)-1,3,4-oxadiazol-2-yl)isoindolin-1-one]
91%	O=C1c2cc(-c3nnc(C(F)F)o3)ccc2CN1c1ccccc1-c1ccc(F)cc1F [Example 310, 2-(2′,4′-difluorobiphenyl-2-yl)-6-(5-(difluoromethyl)-1,3,4-oxadiazol-2-yl)isoindolin-1-one]
99%	Cc1ccccc1-c1ccccc1N1Cc2ccc(-c3nnc(C(F)F)o3)cc2C1=O [Example 311, 6-(5-(difluoromethyl)-1,3,4-oxadiazol-2-yl)-2-(2′-methyl-biphenyl-2-yl)isoindolin-1-one]
96%	Cc1cccc(-c2ccccc2N2Cc3ccc(-c4nnc(C(F)F)o4)cc3C2=O)c1 [Example 312, 6-(5-(difluoromethyl)-1,3,4-oxadiazol-2-yl)-2-(3′-methyl-biphenyl-2-yl)isoindolin-1-one]
98%	Cc1ccc(-c2ccccc2N2Cc3ccc(-c4nnc(C(F)F)o4)cc3C2=O)cc1 [Example 313, 6-(5-(difluoromethyl)-1,3,4-oxadiazol-2-yl)-2-(4′-methyl-biphenyl-2-yl)isoindolin-1-one]
101%	CS(=O)(=O)c1cncc(-c2ccccc2N2Cc3ccc(-c4nnc(C(F)F)o4)cc3C2=O)c1 [Example 314, 6-(5-(difluoromethyl)-1,3,4-oxadiazol-2-yl)-2-(2-(5-(methylsulfonyl)pyridin-3-yl)phenyl)isoindolin-1-one]
98%	O=C1c2cc(-c3nnc(C(F)F)o3)ccc2CN1c1ccccc1-c1cccc(OCC(F)(F)F)c1 [Example 315, 6-(5-(difluoromethyl)-1,3,4-oxadiazol-2-yl)-2-(3′-(2,2,2-trifluoroethoxy)biphenyl-2-yl)isoindolin-1-one]
92%	N#CC1(c2ccc(-c3ccccc3N3Cc4ccc(-c5nnc(C(F)F)o5)cc4C3=O)cc2)CC1 [Example 316, 1-(2′-(6-(5-(difluoromethyl)-1,3,4-oxadiazol-2-yl)-1-oxo-1,3-dihydro-2H-isoindol-2-yl)-biphenyl-4-yl)cyclopropane-carbonitrile]
97%	COCCOc1ccccc1-c1ccccc1N1Cc2ccc(-c3nnc(C(F)F)o3)cc2C1=O [Example 317, 6-(5-(difluoromethyl)-1,3,4-oxadiazol-2-yl)-2-(2′-(2-methoxyethoxy)biphenyl-2-yl)isoindolin-1-one]
98%	O=C1c2cc(-c3nnc(C(F)F)o3)ccc2CN1c1ccccc1-c1cnn(C(F)F)c1 [Example 318, 6-(5-(difluoromethyl)-1,3,4-oxadiazol-2-yl)-2-(2-(1-(difluoromethyl)-1H-pyrazol-4-yl)phenyl)isoindolin-1-one]
86%	O=C1c2cc(-c3nnc(C(F)F)o3)ccc2CN1c1ccccc1-c1cnn(C2CCOCC2)c1 [Example 319, 6-(5-(difluoromethyl)-1,3,4-oxadiazol-2-yl)-2-(2-(1-(tetrahydro-2H-pyran-4-yl)-1H-pyrazol-4-yl)phenyl)-isoindolin-1-one]
99%	Cn1nc(C(F)(F)F)cc1-c1ccccc1N1Cc2ccc(-c3nnc(C(F)F)o3)cc2C1=O [Example 320, 6-(5-(difluoromethyl)-1,3,4-oxadiazol-2-yl)-2-(2-(1-methyl-3-(trifluoromethyl)-1H-pyrazol-5-yl)phenyl)-isoindolin-1-one]
98%	COCCOc1ccc(-c2ccccc2N2Cc3ccc(-c4nnc(C(F)F)o4)cc3C2=O)cc1 [Example 321, 6-(5-(difluoromethyl)-1,3,4-oxadiazol-2-yl)-2-(4′-(2-methoxyethoxy)biphenyl-2-yl)isoindolin-1-one]
23%	O=C1c2cc(-c3nnc(C(F)F)o3)ccc2CN1c1ccccc1-c1cnc(OCC(F)(F)F)nc1 [Example 322, 6-(5-(difluoromethyl)-1,3,4-oxadiazol-2-yl)-2-(2-(2-(2,2,2-trifluoroethoxy)-pyrimidin-5-yl)phenyl)-isoindolin-1-one]
97%	O=C1c2cc(-c3nnc(C(F)F)o3)ccc2CN1c1ccccc1-c1cnn(Cc2ccccn2)c1 [Example 323, 6-(5-(difluoromethyl)-1,3,4-oxadiazol-2-yl)-2-(2-(1-(pyridin-2-ylmethyl)-1H-pyrazol-4-yl)phenyl)-isoindolin-1-one]
97%	N#CCOc1cccc(-c2ccccc2N2Cc3ccc(-c4nnc(C(F)F)o4)cc3C2=O)c1 [Example 324, ((2′-(6-(5-(difluoromethyl)-1,3,4-oxadiazol-2-yl)-1-oxo-1,3-dihydro-2H-isoindol-2-yl)biphenyl-3-yl)oxy)-acetonitrile]
100%	O=C(c1cccc(-c2ccccc2N2Cc3ccc(-c4nnc(C(F)F)o4)cc3C2=O)c1)N1CCCC1 [Example 325, 6-(5-(difluoromethyl)-1,3,4-oxadiazol-2-yl)-2-(3′-(pyrrolidin-1-ylcarbonyl)-biphenyl-2-yl)isoindolin-1-one]
86%	O=C1c2cc(-c3nnc(C(F)F)o3)cc(F)c2CN1C[C@@H]1CCCN1 [Example 326, 6-(5-(difluoromethyl)-1,3,4-oxadiazol-2-yl)-4-fluoro-2-((2S)-pyrrolidin-2-ylmethyl)-isoindolin-1-one]
99%	O=C1c2cc(-c3nnc(C(F)F)o3)cnc2CN1Cc1cccc(F)c1F [Example 327, 6-(2,3-difluorobenzyl)-3-(5-(difluoromethyl)-1,3,4-oxadiazol-2-yl)-6,7-dihydro-5H-pyrrolo[3,4-b]pyridin-5-one]
98%	O=C1c2cc(-c3nnc(C(F)F)o3)cnc2CN1Cc1ccc(F)cc1 [Example 328, 3-(5-(difluoromethyl)-1,3,4-oxadiazol-2-yl)-6-(4-fluorobenzyl)-6,7-dihydro-5H-pyrrolo[3,4-b]pyridin-5-one]
99%	O=C1c2cc(-c3nnc(C(F)F)o3)cnc2CN1Cc1c(F)cccc1F [Example 329, 6-(2,6-difluorobenzyl)-3-(5-(difluoromethyl)-1,3,4-oxadiazol-2-yl)-6,7-dihydro-5H-pyrrolo[3,4-b]pyridin-5-one]
99%	O=C1c2cc(-c3nnc(C(F)F)o3)ccc2CN1c1ccccc1-n1cccn1 [Example 330, 6-(5-(difluoromethyl)-1,3,4-oxadiazol-2-yl)-2-(2-(1H-pyrazol-1-yl)phenyl)-isoindolin-1-one]
97%	CC(C)(C)OC(=O)N1CC(F)(F)C[C@H]1CN1Cc2c(F)cc(-c3nnc(C(F)F)o3)cc2C1=O [Example 331, tert-butyl (2S)-2-((6-(5-(difluoromethyl)-1,3,4-oxadiazol-2-yl)-4-fluoro-1-oxo-1,3-dihydro-2H-isoindol-2-yl)methyl)-4,4-difluoropyrrolidine-1-carboxylate]
